Source: patent publication US20120034226A1, “DIAGNOSTIC METHOD OF SKIN INFLAMMATORY DISEASE” (RIKEN, priority 2009, published 2012)

Legend:
[1] = system: CD4-positive T cells derived from the mutant mouse; assay: Cytokine-dependent cell proliferation activity (WST-8 assay); type: cell-based; settings: cytokine/PMA-stimulated, 48 hours culture, Jak inhibitor I 3-100 nM, Jak3 inhibitor I 125-500 μM
Method: Cytokine-dependent cell proliferation activity was measured as described below. Single cells of the thymus in suspension were cultured at a density of 5×10^5 cells/well, and stimulated with PMA (10 ng/ml) [IL-2 (25 ng/ml), IL-4 (25 ng/ml), IL-6 (100 ng/ml), IL-7 (25 ng/ml), IL-12 (1-100 ng/ml) or IFN-γ (100 ng/ml) (Peprotech and R&D) was added]. Used in some experiments was the pan-Jak inhibitor Jak inhibitor I (3-100 nM, pyridone 6; Calbiochem) or Jak3 inhibitor I (125-500 μM, WHI-P131; Calbiochem). The cells were cultured for 48 hours, and their proliferation was measured by an assay using WST-8 (Nacalai Tesque) and soluble tetrazolium/formazan.

[2] = system: ear skins of mutant mice; assay: Petrolatum coating of ear skin of mutant mice, development of dermatitis; type: in vivo, mouse; settings: Jak inhibitor added to petrolatum
Method: (§1) A mouse model of atopic dermatitis was generated according to a detailed protocol reported [Masuya et al., Hum Mol Genet. 16, 2366-2375 (2007); http://www.brc.riken.jp/lab/gsc/mouse/]. C57BL/6J mice and C3H/HeJ mice were purchased from CLEA Japan. C57BL/6-kit^W-sh/W-sh mice were obtained from the RIKEN BioResource Center. C57BL/6-RAG1^−/− mice were allowed to propagate spontaneously. Severity scores were determined using an improved version of a reported scale [Matsuda et al., Int Immunol. 9, 461-466 (1997)]. The mice were reared in an SPF (specific pathogen-free) environment and subjected to experiments in compliance with the guidelines with the approval of RIKEN's Animal Experiment Committee.
To determine whether the destruction of the skin permeability barrier causes the development of dermatitis in the mutant mice, their ear skins were coated with petrolatum alone three times a week for 4 to 16 weeks.

[3] = system: pY-Jak1 and Ki67 in the ear skins of the mutant mice; assay: Histoimmunological staining of differentiation marker molecules in ear skin after Jak inhibitor; type: in vivo, mouse; settings: mutant mice treated with Jak inhibitor for 2 weeks from Week 4 of age
Method: (§2) Jak inhibitor I (150 μM, pyridone 6; Calbiochem) in suspension in acetone/olive oil (4:1), 10 μl, was topically applied to the ventral and dorsal parts of the ear skin of each mutant mouse three times a week, starting at 4 weeks after birth.
For analysis by immunofluorescence, frozen ear tissue specimens were fixed and stained using an antibody against pY-Jak1 (Cell Signaling), an antibody against Ki67 (Abcam), and an antibody against K6, K14 or K10 (Covance). Next, samples were incubated with an FITC- or Cy3-conjugated goat anti-rabbit IgG secondary antibody (Zymed). The slides were further counter-stained with hematoxylin or DAPI (Vector Laboratories).
Since some differentiation marker molecules were abnormally expressed in the epidermal layer, how the expression of those differentiation marker molecules changed with inhibition of Jak1 activity with a Jak inhibitor in mutant mice was examined by histoimmunological staining (FIG. 5c). By inhibiting Jak1 activity, the expression of pY-Jak1 and the expression of Ki67 in the ear skins of the mutant mice could be reduced. In contrast, in the mice receiving the solvent alone, Jak1 and Ki67 were activated in excess. […] In the ear skins of mice treated with acetone-olive oil alone, all markers were expressed at higher levels than in the skins of non-treated mice.

[4] = system: ear skins of mutant mice; assay: Topical application of Jak inhibitor to ear skin of mutant mice, development of dermatitis; type: in vivo, mouse
Method: as §1, §2
The above-described Example has shown that dermatitis in the mutant mice is caused by excess activation of Jak1 and resulting defect of the skin barrier. To verify this hypothesis, a Jak inhibitor was coated on the ear skins of mutant mice at 4 weeks after birth and their litter mates. To allow the inhibitor to deeply penetrate the epidermal layer, a combination of acetone and olive oil was used as the solvent for the inhibitor. In fact, this solvent itself was harmful to the formation of the epidermal barrier; the development of dermatitis in the mutant mice was promoted by administering this solvent.

[5] = system: EGF receptor (EGFR); settings: Kumamoto T. et al., Cancer Lett. 2009; cited from earlier work
[6] = system: Jak1; settings: Kumamoto T. et al., Cancer Lett. 2009; cited from earlier work

| SMILES | inhibition of accentuated (excess) proliferation of lymphocytes [1] | inhibition of accentuated (excess) proliferation of lymphocytes ([1]; listed as Jak 3 inhibitor I) | additive effect on suppression of development of the illness [2] | inhibition of accentuated (excess) proliferation of lymphocytes ([1]; listed as Jak inhibitor I) | expression of Ki67 in ear skin [3] | expression of pY-Jak1 in ear skin [3] | delay of development of dermatitis compared with solvent alone ([4]; 150 μM in acetone/olive oil, 10 μl topically on ear skin three times a week from 4 weeks after birth) [week] | clinical symptoms compared with solvent alone ([4]; 150 μM in acetone/olive oil, topical on ear skin three times a week from 4 weeks after birth) | development of dermatitis (in words) ([4]; Jak inhibitor applied to the skin, FIG. 5) | progression of the illness after development of dermatitis ([4]; coating with the Jak inhibitor on ear skin) | self-phosphorylation of EGF receptor (EGFR) [5] | phosphorylation of Jak1 [6] |
| --- | --- | --- | --- | --- | --- | --- | --- | --- | --- | --- | --- | --- |
| COc1cc2ncnc(Nc3ccc(O)cc3)c2cc1OC [WHI-P131] | not | lack of proliferation inhibition | – | – | – | – | – | – | – | – | – | – |
| CC(C)(C)c1nc2c3cc[nH]c(=O)c3c3cc(F)ccc3c2[nH]1 [pyridone 6] | dose-dependently inhibited | – | no additive effect | inhibited dose-dependently | reduced | reduced | 1 | less severe clinical symptoms | suppressed | suppressed the progression of the illness | – | – |
| O=c1c(O)c(-c2cc(O)c(O)c(O)c2)oc2cc(O)cc(O)c12 [myricetin, 3,3′,4′,5,5′,7-hexahydroxyflavone] | – | – | – | – | – | – | – | – | – | – | increase | inhibit |
